Measurements reported in ChEMBL document CHEMBL1201862, “PubChem BioAssay data set” (2004).
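Assay format: 96-well plates, 48-hour exposure. GI50 is the concentration that inhibits growth by half.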 Activity calls are given as the source filed them. Rule as the data show it: active = GI50 up to about 1.1 µM and inactive = higher.

What was measured:
Assay in all cases: NCI-60 cell line screen, 48 h
[1] = tested on: 786-0
[2] = tested on: CAKI-1
[3] = tested on: CCRF-CEM
[4] = tested on: HCC 2998
[5] = tested on: KM12
[6] = tested on: MDA-MB-435
[7] = tested on: MOLT-4
[8] = tested on: Malme-3M
[9] = tested on: NCI-H522
[10] = tested on: OVCAR-5
[11] = tested on: SF-268
[12] = tested on: SF-295
[13] = tested on: SR
[14] = tested on: U-251
[15] = tested on: UACC-62
[16] = tested on: UO-31
[17] = tested on: A498
[18] = tested on: NCI-H226

Measured: GI50

O=C(CCN1CCCCC1)Nc1ccc2sc3ccccc3c(=O)c2n1
inactive: [1] 11.8 µM | [2] 11.5 µM | [3] 7.91 µM | [4] 14.4 µM | [5] 15.9 µM | [6] 13.1 µM | [7] 2.56 µM | [8] 28 µM | [9] 12 µM | [10] 18.2 µM | [11] 16.3 µM | [12] 18.1 µM | [13] 12.2 µM | [14] 14.6 µM | [15] 14.5 µM | [16] 9.79 µM

CCOC(=O)c1cn(C)c(=S)n2c1nc1ccccc12
inactive: [1] 74.1 µM | [17] 22.3 µM | [2] 91.4 µM | [3] 48.2 µM | [4] > 100 µM | [5] 98.9 µM | [6] > 100 µM | [7] 95.7 µM | [18] 60.7 µM | [10] > 100 µM | [12] 59.4 µM | [13] 62.5 µM | [14] > 100 µM | [15] 21.8 µM | [16] 4.73 µM

Cc1nn(C(=O)c2ccccc2O)c2c1C(c1ccco1)SC(=N)N2 (configuration not stated)
inactive: [1] 7.01 µM | [17] 6.07 µM | [2] 3.48 µM | [3] 2.95 µM | [5] 5.47 µM | [6] 7.29 µM | [7] 3.61 µM | [8] > 10 µM | [18] 3.43 µM | [10] > 10 µM | [11] 4.09 µM | [12] > 10 µM | [13] 4.9 µM | [14] 5.28 µM | [15] 2.13 µM | [16] 5.6 µM

Oc1ccc(Cl)cc1/C=N/c1cnc2ccccc2c1
inactive: [1] 37.9 µM | [17] > 100 µM | [2] > 100 µM | [3] 1.52 µM | [5] 30.6 µM | [6] 36.7 µM | [7] 2.84 µM | [8] > 70.6 µM | [18] 55.2 µM | [9] > 86.7 µM | [10] > 100 µM | [11] 29.1 µM | [12] 36.7 µM | [13] 18.8 µM | [14] 11.9 µM | [15] 32.7 µM | [16] 45.6 µM

O=C1C=C(NCCc2cc(Br)c(O)c(Br)c2)C(=O)c2[nH]cnc21
inactive: [1] > 100 µM | [2] 39.9 µM | [3] 2.28 µM | [4] 11.5 µM | [5] 48.5 µM | [6] 15.6 µM | [7] > 10 µM | [8] 15 µM | [18] 23 µM | [9] 21.2 µM | [10] 29.9 µM | [11] 49 µM | [12] 30.5 µM | [13] 32.4 µM | [14] 38.3 µM | [15] 19.5 µM | [16] 75 µM

O=C(NC1CCN(Cc2ccccc2)CC1)c1ccccc1I
inactive: [1] 26.1 µM | [17] 57 µM | [2] 53.5 µM | [3] 24.3 µM | [5] 17.3 µM | [6] 17.4 µM | [7] 17 µM | [8] 17.5 µM | [18] 25.8 µM | [9] 14.4 µM | [10] 22.5 µM | [11] 39.3 µM | [12] 20.2 µM | [13] 25.6 µM | [14] 23.2 µM | [15] 18.5 µM | [16] 15.8 µM

O=C1CC(n2ccnc2)c2c(Cl)sc(Cl)c21 (configuration not stated)
inactive: [1] 6.79 µM | [2] 19.5 µM | [3] 4.78 µM | [5] 15.6 µM | [6] 17.1 µM | [7] 3.86 µM | [8] 17.4 µM | [18] 31.6 µM | [9] 6.31 µM | [10] 22.5 µM | [11] 21.9 µM | [12] 27.4 µM | [13] 2.92 µM | [14] 17.7 µM | [15] 15.5 µM | [16] 14 µM

COc1ccc(-c2cc(-c3ccncc3)nc(N)c2-c2ccc(F)cc2)cc1
inactive: [1] 9.29 µM | [17] 46.3 µM | [2] 32.3 µM | [3] > 100 µM | [5] 33.8 µM | [6] 21.2 µM | [7] 73.3 µM | [8] > 100 µM | [18] 46.1 µM | [9] 11.1 µM | [10] > 100 µM | [11] 44 µM | [12] 80.9 µM | [13] 4.19 µM | [14] > 100 µM | [15] 71.4 µM | [16] 17.3 µM

O=C(O)c1ccc(Oc2nc3ccccc3s2)cc1
inactive: [1] > 100 µM | [17] > 100 µM | [2] > 100 µM | [3] > 100 µM | [5] > 100 µM | [6] > 100 µM | [7] > 100 µM | [8] > 100 µM | [18] > 100 µM | [9] > 100 µM | [10] > 100 µM | [11] > 100 µM | [12] > 100 µM | [13] 85.7 µM | [14] > 100 µM | [15] > 100 µM | [16] > 100 µM

CCOC(=O)Cc1ccc(Nc2nc3cc(C(F)(F)F)ccc3nc2C(=O)OCC)cc1
inactive: [1] 23.5 µM | [17] 32.7 µM | [2] 30.1 µM | [5] > 100 µM | [6] > 100 µM | [7] > 100 µM | [8] > 100 µM | [18] 17.6 µM | [9] 50.8 µM | [10] > 100 µM | [11] 37.3 µM | [12] 63.2 µM | [13] > 100 µM | [14] 45.2 µM | [15] 48.8 µM | [16] > 100 µM

CCOC(=O)[C@@]12C[C@](/C=C/OC)(O[Si](C)(C)C)[C@@]13c1cc(OC)c(OC)cc1CCN3C(=O)C2O (some centres not stated)
inactive: [1] > 100 µM | [17] > 100 µM | [2] > 100 µM | [3] > 100 µM | [5] > 100 µM | [6] > 100 µM | [7] > 100 µM | [8] > 100 µM | [18] > 100 µM | [10] > 100 µM | [11] > 100 µM | [12] > 100 µM | [13] > 100 µM | [14] > 100 µM | [15] 46.9 µM | [16] > 100 µM

CCOC(=O)Oc1cc2c(ccn2C)c2c1c1ccccc1n2C(=O)OCC
inactive: [1] > 100 µM | [17] > 100 µM | [2] > 100 µM | [3] > 100 µM | [5] > 100 µM | [6] > 100 µM | [7] > 100 µM | [8] 76.7 µM | [18] > 100 µM | [9] > 100 µM | [10] > 100 µM | [11] > 100 µM | [12] > 100 µM | [13] > 100 µM | [14] > 100 µM | [15] > 100 µM | [16] > 100 µM
